Assay results reported in patent publication US7803757B2, “Peptides based on the sequence of human lactoferrin and their use” (PharmaSurgics in Sweden AB, priority 1998, dated 2010).
≈ marks a conversion by molar mass, not a printed value. Peptide text beside a SMILES is read from it. * marks the point of attachment. Acm = CC(=O)NC*

How the values were obtained:
[1] = test system: E. coli O14; experiment: bactericidal activity, incubation with E. coli O14 (Example 3, exp. I and III); type: cell-based
Description: Human lactoferrin (hLF), peptide 3, and peptide 4, respectively, were incubated with two different strains of E. coli, E. coli O14 (experiment I) and O6K5 (experiment II), in diluted growth medium ( 1/100 BHI—brain heart infusion) for 2 hours. The peptides were also incubated with E. coli O14 in 0.05 mM KCl (pH 7) without any growth medium (experiment III). Different concentrations of the peptides were tested.
After the incubation, samples were taken for bacterial plating. Serial dilutions of five- and fourfold steps were used in experiments I and II, respectively, and of twofold steps in experiment III.
The concentrations of the different peptides required for killing 100% (experiments I and II) or 90% (experiment III) of the bacteria are given in table 2.

[2] = test system: Candida albicans; experiment: fungicidal activity against Candida albicans strains (Example 4); type: cell-based
Description: In this example the fungicidal activity of the peptides according to the invention was tested and compared to the fungicidal activity of human lactoferrin. Different concentrations of hLF, peptide 3 and peptide 4 were incubated with different strains of Candida albicans and Candida krusei during 1-2 hours at 37° C. in 0.05 mM KCl at pH 7.0 at two different occasions—experiment I and II, respectively. After incubation samples were taken for plating on Saboroud plates.

[3] = test system: E. coli O6K5; experiment: urinary tract infection in mice, bacteria (CFU) in kidney (Example 6); type: in vivo; conditions: 500 μg per mouse orally 30 minutes after instillation, 24 hours
Description: E. coli O6K5 was instilled into the urinary bladder of mice. 30 minutes after instillation the different agents specified in table 5 were administered orally in an amount of 500 μg per mouse and 24 hours after instillation the number of bacteria (CFU) present in bladder and in kidney was determined.
The control group consisted of 10 animals in experiment I and of 23 animals in experiment II. The animals in the control groups were given tap water instead of peptide or hLF.

[4] = test system: E. coli O14; experiment: bactericidal activity against E. coli O14, comparison with EP-A-0 629 347 peptides (Example 7); type: cell-based; conditions: E. coli O14, II: serial dilutions of twofold steps
Description: In this example an in vitro test was performed to compare the bactericidal and fungicidal activity of the peptides according to the invention with peptides described in EP-A-0 629 347. The peptide according to the invention used was peptide 4, and the peptides according to EP-A-0 629 347 called Morinaga 10, Morinaga 11, Morinaga 12, and Morinaga 13.
The peptides were incubated with E. coli O14 and Candida albicans. Two concentrations of C. albicans yeast cells were tested, 5·10^6 and 5·10^3 per ml. Different concentrations of the peptides were tested.
After the incubation, samples were taken for bacterial plating. Serial dilutions of tenfold steps were used in the experiments marked with I in table 5 and of twofold steps in the experiments marked with II.

[5] = test system: Candida albicans ATCC 64549; experiment: fungicidal and growth inhibitory activity, Candida albicans ATCC 64549 (Example 8); type: cell-based
Description: Candida albicans ATCC 64549 (1·10^5/ml) was incubated in the presence of the peptides during 2 hours at 37° C. in diluted growth medium (BHI, twofold serial dilutions starting with 50 μg/ml). The fungicidal activity was measured by culturing 5 μl from each incubation well on Saboroud agar plates.
The inhibition of growth was measured spectrophotometrically after 20 hours of incubation.

[6] = test system: C. albicans; experiment: microbe, parasite or virus in culture; type: cell-based
Description: (§1) In the examples, the minimal microbicidal concentrations (MMC) and minimal inhibitory concentrations (MIC) were determined as follows, unless otherwise specified in the examples. Bacterial or fungal strains were cultured in BHI medium over night at 37° C. A volume of the culture was transferred to a new tube with BHI and incubated for two more hours. Thereafter the cells were spun down and the pellet was suspended in BHI medium diluted 1/100 (1% BHI). The concentration of bacterial or fungal cells was spectrophotometrically determined at 650 nm. The microbial concentrations were also determined by viable counts. Peptides serially diluted in 1% BHI by twofold or tenfold steps were added in triplicate to the wells of a microtiterplate (200 μl per well). The bacterial or fungal cell solutions were added in 10 μl volumes to give a final concentration of approximately 1-5×10^5 cells per ml in the well. The microplate was incubated at 37° C. in a humid chamber for two hours. Thereafter 5 μl was taken from each well and added as a drop onto a blood agar plate and incubated over night at 37° C. The microplate was incubated for another 20 hours at 37° C. and thereafter analysed spectrophotometrically at 650 nm in a microplate reader (Emax, Molecular Devices, USA). The concentration of peptide causing a 99% reduction of the inoculum after 2 hours of incubation was defined as the MMC99%. The MIC value was defined as the concentration giving no increase in the absorbance value above the background level after 20 hours of incubation.
Also in this example one of the peptides according to the invention—this time the peptide with SEQ. ID. NO. 4, was compared to a conventional fungicide, amphotericin. The antifungal activity against C. albicans was studied. Twofold serial dilutions with a starting concentration of 20 μg/ml were used. BHI diluted 1/100 was used as growth medium.

[7] = test system: C. albicans; experiment: fungicidal activity MMC99%, C. albicans (Example 27); type: cell-based; conditions: BHI diluted 1/100 (Table 23)
Description: as §1
(§2) In this example the fungicidal activity of three of the peptides according to the invention was studied, and tested against three different fungi. The fungi were incubated in BHI medium diluted 1/100. The concentration of each peptide needed to kill 99% of the fungi (MMC99%) was determined.

[8] = test system: C. glabrata; experiment: fungicidal activity MMC99%, C. glabrata (Example 27); type: cell-based; conditions: BHI diluted 1/100 (Table 23)
Description: as §1, §2

[9] = test system: C. neoformans; experiment: fungicidal activity MMC99%, C. neoformans (Example 27); type: cell-based; conditions: BHI diluted 1/100 (Table 23)
Description: as §1, with “The bacterial or fungal cell solutions were added in 10 μl volumes to give a final concentration of approximately 1-5×10^5 cells per ml in the well. The microplate was incubated at 37° C. in a humid chamber for two hours. Thereafter 5 μl was taken from each well and added as a drop onto a blood agar plate and incubated over night at 37° C.” left out, “The concentration of peptide causing a 99% reduction of the inoculum after 2 hours of incubation was defined as the MMC99%.” left out
In this example the fungicidal activity of three of the peptides according to the invention was studied, and tested against three different fungi. […] The concentration of each peptide needed to kill 99% of the fungi (MMC99%) was determined.

[10] = test system: E. coli O6K5; experiment: microbicidal activity MMC99%, E. coli O6K5 (Example 28); type: cell-based; conditions: E. coli O6K5 (Table 24)
Description: as §1
(§3) In this example the microbicidal activity of eight of the peptides according to the invention was studied, and tested against E. coli O6K5 and C. albicans.
(§4) The concentration of each peptide needed to kill 99% of the microorganisms (MMC99%) was determined.

[11] = test system: C. albicans; experiment: microbicidal activity MMC99%, C. albicans (Example 28); type: cell-based; conditions: C. albicans (Table 24)
Description: as §1, §3, §4

**Q.** Which results are given for `CC[C@H](C)[C@H](NC(=O)[C@H](CSCNC(C)=O)NC(=O)[C@H](CO)NC(=O)[C@@H](NC(=O)[C@@H]1CCCN1C(=O)[C@@H]1CCCN1C(=O)CNC(=O)[C@H](CCCNC(=N)N)NC(=O)[C@@H](NC(=O)[C@H](CCCCN)NC(=O)[C@H](CCCNC(=N)N)NC(=O)[C@H](CCSC)NC(=O)[C@H](CC(N)=O)NC(=O)[C@H](CCCNC(=N)N)NC(=O)[C@H](CCC(N)=O)NC(=O)[C@H](Cc1c[nH]c2ccccc12)NC(=O)[C@H](CCC(N)=O)NC(=O)[C@H](Cc1ccccc1)NC(=O)[C@H](CSCNC(C)=O)NC(=O)[C@H](CCCCN)NC(=O)[C@@H](NC(C)=O)[C@@H](C)O)C(C)C)C(C)C)C(=O)N[C@@H](CCCCN)C(=O)N[C@@H](CCCNC(=N)N)C(N)=O` [Peptide 4] (Ac-TKC(Acm)FQWQRNMRKVRGPPVSC(Acm)IKR-NH2)?
**A.** Concentration of agent for 100%/90% killing ([1]; Exp. I: 100% killing, E. coli O14, 1/100 BHI, 2 hours): 4.4 µg/mL; Concentration of agent for 100%/90% killing ([1]; Exp. III: 90% killing, E. coli O14, 0.05 mM KCl (pH 7) without growth medium): 3.2 µg/mL; ratio hLF/pep. (concentration for 99% killing) ([2]; Exp. I, C. albicans ATCC 64549): >40; Concentration of agent for 99% killing ([2]; Exp. I, C. albicans ATCC 64549, 0.05 mM KCl pH 7.0, 1-2 hours 37° C.): 1.25 µg/mL; ratio hLF/pep. (concentration for 99% killing) ([2]; Exp. I, C. albicans CCUG 90028): >40; Concentration of agent for 99% killing ([2]; Exp. I, C. albicans CCUG 90028, 0.05 mM KCl pH 7.0): 1.25 µg/mL; ratio hLF/pep. (concentration for 99% killing) ([2]; Exp. II, C. albicans ATCC 64549): >133; Concentration of agent for 99% killing ([2]; Exp. II, C. albicans ATCC 64549, 0.05 mM KCl pH 7.0): 1.5 µg/mL; ratio hLF/pep. (concentration for 99% killing) ([2]; Exp. II, C. albicans CCUG 599): >133; Concentration of agent for 99% killing ([2]; Exp. II, C. albicans CCUG 599, 0.05 mM KCl pH 7.0): 1.5 µg/mL; ratio hLF/pep. (concentration for 99% killing) ([2]; Exp. II, C. albicans CCUG 1759): >133; Concentration of agent for 99% killing ([2]; Exp. II, C. albicans CCUG 1759, 0.05 mM KCl pH 7.0): 1.5 µg/mL; Statistical comparison of treatment group with control group of the number of bacteria, CFU, present in kidney (p, Mann-Whitney) ([3]; Exp I, mouse strain CH/HeN): p = 0.0137; Statistical comparison of treatment group with control group of the number of bacteria, CFU, present in kidney (p, Mann-Whitney) ([3]; Exp II, mouse strain C3H/Tif): p = 0.0102; Concentration of agent for 100% killing [4]: 12 µg/mL; Concentration of agent for 100% killing ([5]; C. albicans ATCC 64549 1·10^5/ml, 2 hours 37° C., diluted BHI): 6.2 µg/mL; Concentration of agent for inhibition of growth ([5]; C. albicans ATCC 64549, spectrophotometrically after 20 hours): 6.2 µg/mL; MIC [6]: 5.0 µg/mL (≈ 1.67 µM); MMC99% ([6]; C. albicans, BHI diluted 1/100, twofold dilutions from 20 μg/ml): 5.0 µg/mL; MMC99% [7]: 6.3; MMC99% [8]: >50; MMC99% [9]: ≦3.1; MMC99% [10]: 20; MMC99% [11]: 5
